Test results reported in patent EP0730590B1, “ISOXAZOLINE AND ISOXAZOLE FIBRINOGEN RECEPTOR ANTAGONISTS” (Dupont Pharmaceuticals Company, priority 1993, dated 1995).

Columns and labels:
[1] = molecular target: human platelet rich plasma (Homo sapiens, UniProt P05106+P08514); experiment: Platelet Aggregation Assay, ester prodrugs preincubated with porcine liver esterase; type: cell-based; settings: platelet rich plasma (PRP)
Method: Aliquots are then diluted in 0.1 M Tris, pH 7.4, to the desired concentrations. Aliquots of 20 µl of the esterase pretreated prodrugs are added to 200 µl of human platelet rich plasma. […] Platelet aggregation was allowed to proceed for 5 minutes. Percent inhibition is calculated using percent aggregation in the presence of the test compound divided by percent aggregation of control, times 100. This value is subtracted from 100, yielding percent inhibition. Calculation of IC50 is performed on a Texas Instruments TI59 with an IC50 program.

[2] = molecular target: agonist-induced platelet aggregation (Homo sapiens, UniProt P05106+P08514); experiment: Platelet Aggregation Assay in platelet-rich plasma (PRP); type: cell-based; settings: without esterase
Method: Platelet Aggregation Assay: Venous blood was obtained from the arm of a healthy human donor who was drug-free and aspirin-free for at least two weeks prior to blood collection. Blood was collected into 10 ml citrated Vacutainer tubes. The blood was centrifuged for 15 minutes at 150 x g at room temperature, and platelet-rich plasma (PRP) was removed. The remaining blood was centrifuged for 15 minutes at 1500 x g at room temperature, and platelet-poor plasma (PPP) was removed. Samples were assayed on a aggregometer (PAP-4 Platelet Aggregation Profiler), using PPP as the blank (100% transmittance). 200 µl of PRP was added to each micro test tube, and transmittance was set to 0%. 20 µ of various agonists (ADP, collagen, arachidonate, epinephrine, thrombin) were added to each tube, and the aggregation profiles were plotted (% transmittance versus time). The results are expressed as % inhibition of agonist-induced platelet aggregation. For the IC50 evaluation, the test compounds were added at various concentrations prior to the activation of the platelets.
Table A below sets forth the antiplatelet activity of representative compounds of the present invention. The indicated compounds were tested for their ability to inhibit platelet aggregation (using platelet rich plasma (PRP)). […]

Chain of human platelet rich plasma (P08514 with tags, fused parts or gaps): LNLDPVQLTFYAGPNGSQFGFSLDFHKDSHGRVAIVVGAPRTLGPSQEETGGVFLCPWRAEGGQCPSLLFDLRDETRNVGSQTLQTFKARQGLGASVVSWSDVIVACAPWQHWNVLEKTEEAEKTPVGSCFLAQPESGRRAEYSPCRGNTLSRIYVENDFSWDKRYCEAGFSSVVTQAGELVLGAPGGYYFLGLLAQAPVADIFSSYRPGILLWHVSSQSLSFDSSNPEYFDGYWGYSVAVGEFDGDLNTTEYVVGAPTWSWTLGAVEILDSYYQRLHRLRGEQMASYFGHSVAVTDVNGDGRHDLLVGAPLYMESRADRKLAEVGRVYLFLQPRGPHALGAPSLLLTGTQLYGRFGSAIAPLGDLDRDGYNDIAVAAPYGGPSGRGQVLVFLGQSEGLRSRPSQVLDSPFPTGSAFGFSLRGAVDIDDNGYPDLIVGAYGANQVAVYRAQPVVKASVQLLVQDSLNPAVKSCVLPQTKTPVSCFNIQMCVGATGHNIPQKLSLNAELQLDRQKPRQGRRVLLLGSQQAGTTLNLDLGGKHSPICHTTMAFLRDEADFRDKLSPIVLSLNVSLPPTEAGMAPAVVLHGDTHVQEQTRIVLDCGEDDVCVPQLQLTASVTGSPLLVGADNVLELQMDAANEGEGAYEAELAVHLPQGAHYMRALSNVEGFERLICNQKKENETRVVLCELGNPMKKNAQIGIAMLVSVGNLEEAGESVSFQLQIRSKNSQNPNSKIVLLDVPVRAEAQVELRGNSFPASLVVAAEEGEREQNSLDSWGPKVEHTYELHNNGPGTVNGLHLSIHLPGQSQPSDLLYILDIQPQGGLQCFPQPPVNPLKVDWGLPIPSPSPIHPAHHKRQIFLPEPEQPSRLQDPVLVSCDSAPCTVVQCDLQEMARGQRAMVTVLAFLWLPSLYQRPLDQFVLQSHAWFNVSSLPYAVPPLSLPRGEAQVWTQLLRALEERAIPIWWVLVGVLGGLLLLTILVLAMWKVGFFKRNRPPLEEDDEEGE
Chain of human platelet rich plasma (P05106 27-788): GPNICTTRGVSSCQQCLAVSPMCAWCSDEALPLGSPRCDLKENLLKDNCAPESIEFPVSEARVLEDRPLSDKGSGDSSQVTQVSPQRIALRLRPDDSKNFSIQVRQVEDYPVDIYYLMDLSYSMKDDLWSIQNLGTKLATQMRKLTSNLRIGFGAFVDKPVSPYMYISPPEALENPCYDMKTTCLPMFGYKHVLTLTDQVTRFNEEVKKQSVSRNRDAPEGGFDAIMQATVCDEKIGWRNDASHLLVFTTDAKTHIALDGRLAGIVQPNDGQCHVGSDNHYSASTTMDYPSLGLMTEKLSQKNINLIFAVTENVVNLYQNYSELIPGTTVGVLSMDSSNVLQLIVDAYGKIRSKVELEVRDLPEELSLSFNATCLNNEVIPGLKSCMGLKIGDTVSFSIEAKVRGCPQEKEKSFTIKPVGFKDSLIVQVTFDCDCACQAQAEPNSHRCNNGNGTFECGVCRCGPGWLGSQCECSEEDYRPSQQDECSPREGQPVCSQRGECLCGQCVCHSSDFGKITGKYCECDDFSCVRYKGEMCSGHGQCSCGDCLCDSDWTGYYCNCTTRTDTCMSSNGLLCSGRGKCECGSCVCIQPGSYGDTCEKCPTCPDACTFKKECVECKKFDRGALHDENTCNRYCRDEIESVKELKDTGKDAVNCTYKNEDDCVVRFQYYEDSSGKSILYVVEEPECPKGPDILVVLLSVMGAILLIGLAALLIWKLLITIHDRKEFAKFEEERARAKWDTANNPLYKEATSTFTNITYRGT
Chain of agonist-induced platelet aggregation (P08514 with tags, fused parts or gaps): as the sequence (P08514 with tags, fused parts or gaps) above
Chain of agonist-induced platelet aggregation (P05106 27-788): as the sequence (P05106 27-788) above

Molecule | IC50 [1] [µM] | IC50 [2] [µM]
COC(=O)C(CNC(=O)CC1CC(c2ccc(C(=N)N)cc2)=NO1)NC(=O)c1ccc(-c2ccccc2)cc1 (stereo not shown) [Example 523] | < 10 | –
Methyl N^2-(m-toluenesulfonyl)-N^3-[3-(3-amidinopyrid-6-yl)isoxazolin-5-ylacetyl]-S-2,3-diaminopropionate bis hydrochloric acid salt [Example 514] | < 10 | –
Methyl N^2-(m-toluenesulfonyl)-N^3-[3-(2-amidinopyrid-5-yl)isoxazolin-5-ylacetyl]-S-2,3-diaminopropionate bis hydrochloric acid salt [Example 516] | < 10 | –
COC(=O)C(CNC(=O)CC1CC(c2ccc(C(=N)N)cc2)=NO1)NS(=O)(=O)c1ccc(-c2ccccc2)cc1 (stereo not shown) [Example 546] | < 10 | –
O=C(O)CCCN1C(=O)CC2(CC(CCCC3CCNCC3)=NO2)C1=O (stereo not shown) [Example 373] | – | 10 to 50
Methyl N^2-(n-butyloxycarbonyl)-N^3-[3-(2-amidinopyrid-5-yl) isoxazolin-5-ylacetyl]-S-2,3-diaminopropionate bis hydrochloric acid salt [Example 515] | < 10 | –
Methyl N^2-(n-butyloxycarbonyl)-N^3-[3-(3-amidinopyrid-6-yl) isoxazolin-5-ylacetyl]-S-2,3-diaminopropionate bis hydrochloric acid salt [Example 513] | < 10 | –
